Measurements as given in US20250316716A1, “ELECTROCHEMICAL OXYGEN REDUCTION CATALYST” (TOYOTA JIDOSHA KABUSHIKI KAISHA, priority 2024, published 2025).

Key:
[1] = Water solubility of the modifier; format: physicochemical
[2] = Alcohol solubility of the modifier; format: physicochemical; details: organic solvent or mixture, alcohol (diacetone alcohol or ethanol)

Compound | solubility [1] [µg/mL] | solubility [2] [µg/mL]
Nc1nc(N)nc(N)n1 [Melamine, melamine] | ≥ 3000 | ≥ 3000
NC1=NC2=NC(N)=NC3=NC(N)=NC(=N1)N23 [Melem, melem] | < 3000 | < 3000
